US5482954A, “Signal transduction inhibitor triazole and diazole compounds” (priority 1994, dated 1996)
Like-named read-outs stand apart in the source and are kept apart here.

What was measured:
5R cells = experiment: [3H]thymidine incorporation; format: cell-based, rat; conditions: 0-10 μg/mL, 24 hr
Method: (§1) Proliferation: Two independent methods were used to determine the effect of various compounds on cellular proliferation. The first method utilized [^3 H]thymidine labelling and was performed using A2058, 5R, OVCAR3, and MDA-231 cells. Because the potential effect of compound 1 on thymidine metabolism was unknown, a clonogenic assay was also used. This assay utilized crystal violet nuclear staining.
(§2) For the thymidine incorporation assay, an initial aliquot of 15,000 cells was plated in 96 well plates. The cells were grown to subconfluence, serum-starved, then fed with serum-containing media to which incremental doses of compound 1 (0-10 μg/mL) were added. After 24 hr, the cells were pulsed with [^3 H]thymidine (0.5 μCi/well) for 2 hr. Trichloroacetic acid was added to precipitate […] [^3 H]thymidine. After removal, ice cold ethanol/diethyl ether was added to precipitate cellular nucleic acids. The residue was solubilized with 0.2M NaOH and [^3 H]thymidine incorporation was determined by liquid scintillation counting. Inhibition of thymidine uptake was calculated as a percent of untreated control cell incorporation of labelled thymidine. As FIG. 4 indicates, de novo DNA synthesis was inhibited in all of the tumor cell lines. Maximal inhibition (80%) was found with the 5R cells.

MDA-231 cells = experiment: [3H]thymidine incorporation; format: cell-based, human; conditions: 0-10 μg/mL, 24 hr
Method: as §1, §2

A2058 cells [1] = experiment: [3H]thymidine incorporation; format: cell-based, human; conditions: 0-10 μg/mL, 24 hr
Method: as §1, §2

OVCAR3 cells [2] = experiment: [3H]thymidine incorporation; format: cell-based, human; conditions: 0-10 μg/mL, 24 hr
Method: as §1, §2

OVCAR3 cells [3] = experiment: Colony formation (soft agar); format: cell-based; conditions: Homo sapiens, OVCAR-3
Method: (§3) Colony formation: Compound 1 was evaluated at three concentrations for inhibition of colony formation in both the A2058 and OVCAR3 cell lines. Colony number was determined in triplicate and compared to the vehicle control run on each 24 well plate to provide a percent. Colonies greater than 60 cells were counted at 100× under phase contrast. […] In a second study, selected compounds were evaluated for their effect on density-independent growth of the A2058 cell line in soft agar. Percent inhibition was determined over triplicate experiments involving three log molar concentrations of the test compound.

[4] = system: MDA-231 human breast cancer cells; experiment: AMF-stimulated cell motility; format: cell-based; conditions: overnight exposure; data not shown
CHOm5 cells [5] = experiment: Calcium ionophore A23187-stimulated 45Ca2+ influx; format: cell-based, Chinese hamster; conditions: Cricetulus griseus; FIG. 13, A23187
Method: Calcium influx was determined using two methods. The first method involved the use of ^45 Ca^2+, while the second method utilized a fluorescent intracellular calcium chelator, Fura-2. The method using Fura-2 is semi-quantitative and is preferred for kinetic analysis and screening whereas the ^45 Ca^2+ method is quantitative.
CHOm5 cells in monolayer culture were washed free of serum-containing media and incubated with either carbachol or the calcium ionophore A23187 (from Molecular Probes, Eugene, Oreg., USA) in the presence of ^45 Ca^2+ and defined buffer (E2 medium with 0.1 mM MgCl2 and 1.0 mM CaCl2). After incubation for 5 min, the radioactive buffer was rapidly and repeatedly washed off with media containing LaCl3, a competitor of calcium efflux. The cell monolayer was solubilized and the calcium uptake was determined by scintillation counting.

OVCAR3 cells [6] = experiment: Type IV collagen-stimulated motility; format: cell-based, human; conditions: data not shown
A2058 cells [7] = experiment: Colony formation (soft agar); format: cell-based, human
Method: as §3

A2058 and 5R cells = experiment: Reversibility of inhibition of tumor cell adhesion; format: cell-based; conditions: for activity at 1 µg/mL / activity at 5 µg/mL: Homo sapiens, read-out: Adhesion (% of control)
Method: An adhesion assay was developed using tissue culture plastic petri dishes as the substrate. Aliquots of cells treated similarly to those in the cell motility assay were plated in triplicate onto the dishes and incubated for 90 rain at 37° C. Cells which were either poorly adherent or nonadherent were gently washed off with PBS. The remaining cells were stained with Diff Quik™ (from Baxter Scientific Products, McGaw Park. Ill., USA). Adherence was quantitated using laser densitometry and values were calculated as a percentage of the control adherence.
As with cell motility, the effect of compound 1 on cell adhesion is reversible. A2058 and 5R cells were treated as above for testing the reversibility of cell motility. The resulting "treated" cells (±), "washout" cells (±), and "control" cells were then subjected to the adhesion assay.

[8] = system: signal transduction pathways (calcium influx, release of arachidonic acid, generation of inositol phosphates); conditions: cited from earlier work
[9] = Cell viability by trypan blue exclusion; format: cell-based; conditions: a2058 and 5r cells; average
Method: Compound 1 was preincubated with the cells for various periods of time, added at the start of the assay, or added later. Additionally, compound 1 remained present during the motility assay. The cells were assayed for their motile response to AMF. AMF stimulates random and directed locomotion of 5R ras-transfected rat embryo fibroblasts and A2058 human melanoma cells. […] Cell viability determined by trypan blue exclusion averaged greater than 96%. Cells exposed to various concentrations of compound 1 were tested for their response to AMF vs. control. Percent stimulated motility (in densitometer units) is defined as: […]

CHOm5 cells [10] = experiment: Carbachol-stimulated generation of inositol phosphates; format: cell-based, Chinese hamster; conditions: concentrations above 10 μM
Method: This example illustrates the effect of compound 1 on the generation and release of phosphatidyl inositol from either A2058 cells (stimulated with autocrine motility factor) or CHOm5 cells (stimulated with carbachol).
A second assay utilized CHO cells which were transfected with and stably expressed the m5 subtype of the muscarinic acetylcholine receptor.
CHOm5 cells were incubated with [^3 H]inositol (0.5 μCi/well) for 18 to 24 hr. Before the addition of test compounds, the cells were washed twice with 250 μL of serum-free media supplemented with 20 mM HEPES and 10 mM lithium chloride. The test compounds were added in a final volume of 250 μL and the reaction was allowed to proceed for 15 min at 37° C. The reaction was stopped by the addition of 250 μL of an ice-cold solution containing 1M KOH, 18 mM Na2 B4 O7, 3.8 mM EDTA and 7.6 mM NaOH. The stop solution was neutralized immediately with the addition of 250 μL of a solution containing 7.5% HCl. Released inositol phosphates were separated by anion exchange chromatography.

[11] = system: cell adhesion to fibronectin; experiment: Cell adhesion to fibronectin; format: cell-based; conditions: data not shown
Method: Cells were preincubated with compound 1 (0.03-10 μg/mL) for periods of 2 to 48 hr prior to the adhesion assay. In addition, compound 1 remained present during the assay. […] Maximal inhibition of adhesion was observed following overnight exposure of the cells to compound 1.

NC(=O)c1nnn(Cc2cc(Cl)c(C(=O)c3ccc(Cl)cc3)c(Cl)c2)c1N [Compound 1]
maximal inhibition of de novo DNA synthesis ([3H]thymidine incorporation) (5R cells): 80%
inhibition of de novo DNA synthesis (MDA-231 cells): inhibited
inhibition of de novo DNA synthesis (A2058 cells [1]): inhibited
inhibition of de novo DNA synthesis (OVCAR3 cells [2]): inhibited
inhibition at 2 µM (OVCAR3 cells [3]): > 70%
motile response to AMF [4]: inhibited
IC50 (CHOm5 cells [5]): 359 ± 11 nM
motility due to type IV collagen stimulation (OVCAR3 cells [6]): inhibited motility
COLONY FORMATION (% OF CONTROL) (A2058 cells [7]; Table H, soft agar): 11.1 ± 5 % OF CONTROL
Colony Formation (% of Control) (A2058 cells [7]; Table K): 11.1 ± 5 % of Control
inhibition of colony formation (A2058 cells [7]; concentrations as low as 0.2 μM): significant inhibitory effects
reversibility of adhesion inhibition (A2058 and 5R cells): reversible
activity at 1 µg/mL (A2058 and 5R cells; A2058, 1 μg/mL (+/-)): 106%
activity at 1 µg/mL (A2058 and 5R cells; A2058, 1 μg/mL (-/+)): 33%
activity at 5 µg/mL (A2058 and 5R cells; A2058, 5 μg/mL (+/-)): 96%
activity at 5 µg/mL (A2058 and 5R cells; A2058, 5 μg/mL (-/+)): 37%
inhibition of selected signal transduction pathways [8]: novel inhibitor of selected signal transduction pathways
viability [9]: > 96%
inhibition of carbachol-stimulated generation of inositol phosphates (CHOm5 cells [10]): partially inhibited
cell adhesion to fibronectin [11]: decreased cell adhesion
